Laboratory results from PubChem BioAssay (NCI).
Where “and” joins values, the source holds several entries; their conditions need not be identical. Equal entries are not always repeated.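 A five-concentration, 48-hour dose response in 96-well plates underlies each endpoint, interpolated linearly between surrounding concentrations. The concentration for 50% growth inhibition is given as GI50. TGI: total growth inhibition.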

Columns and labels:
Test in all cases: DTP human tumour cell line panel, 48 h
SF-539 CNS = tested on: SF-539 CNS
RXF 393 renal = tested on: RXF 393 renal
T-47D breast = tested on: T-47D breast
A498 renal = tested on: A498 renal
COLO 205 colon = tested on: COLO 205 colon
UACC-62 melanoma = tested on: UACC-62 melanoma
MOLT-4 leukemia = tested on: MOLT-4 leukemia
OVCAR-4 ovarian = tested on: OVCAR-4 ovarian
MCF7 breast = tested on: MCF7 breast
SK-OV-3 ovarian = tested on: SK-OV-3 ovarian

## COc1c(O)c2c3c(c1OC)-c1ccccc1CC3N(S(=O)(=O)c1ccc(C)cc1)CC2 (configuration not stated)
SF-539 CNS
  GI50: 1.15 µM
  TGI: 3.16 µM
RXF 393 renal
  GI50: 1.34 µM
  TGI: 4.12 µM
T-47D breast
  GI50: 1.56 µM
  TGI: 27.9 µM
A498 renal
  GI50: 0.372 µM
  TGI: 5.54 µM
COLO 205 colon
  GI50: 19.2 µM
  TGI: > 50 µM
UACC-62 melanoma
  GI50: 2.41 µM
  TGI: > 50 µM
MOLT-4 leukemia
  GI50: 2.14 µM
  TGI: 10.9 µM
OVCAR-4 ovarian
  GI50: 3.7 µM
  TGI: > 50 µM
MCF7 breast
  GI50: 1.65 µM
  TGI: 23.5 µM
SK-OV-3 ovarian
  GI50: 1.96 µM
  TGI: 38.4 µM

## Nc1nc(=S)c2[nH]cnc2[nH]1
SF-539 CNS
  GI50: 0.483 µM and 0.606 µM and 1.41 µM
  TGI: 68.8 µM [middle of 4 runs]
RXF 393 renal
  GI50: 0.395 µM and 0.474 µM and 0.984 µM
T-47D breast
  GI50: 0.43 µM and 0.964 µM and 1.25 µM
A498 renal
  TGI: > 23.8 µM and 93.7 µM and 12.6 µM
COLO 205 colon
  GI50: 0.998 µM and 2.35 µM and 2.52 µM
  TGI: 5.68 µM [middle of 4 runs]
UACC-62 melanoma
  GI50: 0.295 µM and 0.376 µM and 1.26 µM
MOLT-4 leukemia
  GI50: 0.368 µM and 0.488 µM
OVCAR-4 ovarian
  GI50: 0.573 µM and 4.99 µM
  TGI: > 100 µM and 97.4 µM and 109 µM
MCF7 breast
  GI50: 0.325 µM and 0.547 µM and 1.02 µM
SK-OV-3 ovarian
  GI50: 0.293 µM and 0.784 µM
  TGI: 8.82 µM and 17.5 µM and > 86 µM

## COc1ccc(/C=C/C(C)=N/OCC(=O)Nc2ccc(Cl)cc2)cc1
SF-539 CNS
  GI50: 3.16 µM
  TGI: 13.4 µM
RXF 393 renal
  GI50: 4.09 µM
  TGI: 21.4 µM
T-47D breast
  GI50: 1.63 µM
  TGI: 24.8 µM
A498 renal
  GI50: 2.54 µM
  TGI: 16.6 µM
COLO 205 colon
  GI50: 3.64 µM
  TGI: 14 µM
UACC-62 melanoma
  GI50: 1.21 µM
  TGI: 6.46 µM
MOLT-4 leukemia
  GI50: 2.23 µM
  TGI: 9.97 µM
OVCAR-4 ovarian
  GI50: 1.97 µM
  TGI: 9.96 µM
MCF7 breast
  GI50: 2.3 µM
  TGI: 18.8 µM
SK-OV-3 ovarian
  GI50: 5.27 µM
  TGI: 42.4 µM

## COc1cc(/C=C2\C(=O)N(C)c3ccccc32)cc(OC)c1OC
SF-539 CNS
  GI50: 19.7 µM
  TGI: > 100 µM
RXF 393 renal
  GI50: 0.206 µM
  TGI: 5.75 µM
T-47D breast
  GI50: 58 µM
  TGI: > 100 µM
A498 renal
  GI50: 33 µM
  TGI: > 100 µM
COLO 205 colon
  GI50: 17.7 µM
  TGI: > 100 µM
UACC-62 melanoma
  GI50: 12 µM
  TGI: 32.1 µM
MOLT-4 leukemia
  GI50: 12 µM
  TGI: 74.3 µM
OVCAR-4 ovarian
  GI50: 18.6 µM
  TGI: > 100 µM
MCF7 breast
  GI50: 20.3 µM
  TGI: > 100 µM
SK-OV-3 ovarian
  GI50: 20.9 µM
  TGI: > 100 µM

## C[C@]12CCC3=NCCN3C1=CC[C@@H]1[C@@H]2CC[C@@]2(C)[C@H]1CC[C@]2(C)O
SF-539 CNS
  TGI: 80 µM
RXF 393 renal
  TGI: 66.4 µM
T-47D breast
  TGI: > 100 µM
A498 renal
  TGI: 77.6 µM
COLO 205 colon
  TGI: 75.5 µM
UACC-62 melanoma
  TGI: 76.4 µM
MOLT-4 leukemia
  TGI: > 100 µM
OVCAR-4 ovarian
  TGI: > 100 µM
MCF7 breast
  TGI: > 100 µM
SK-OV-3 ovarian
  TGI: > 100 µM

## C=C(Cl)[C@@](Cl)(CBr)CC[C@@H](Br)C(C)(C)Cl
SF-539 CNS
  GI50: 0.0282 µM
  TGI: 0.325 µM
RXF 393 renal
  GI50: 0.346 µM
  TGI: 2.37 µM and 0.488 µM
T-47D breast
  GI50: 0.775 µM
  TGI: 2.98 µM and 0.797 µM
A498 renal
  TGI: 5.57 µM and 1.93 µM
COLO 205 colon
  GI50: 0.776 µM
UACC-62 melanoma
  GI50: 4.53 µM
  TGI: 24.5 µM and 3.84 µM
MOLT-4 leukemia
  GI50: 17.5 µM
  TGI: 58.4 µM and 63.8 µM
OVCAR-4 ovarian
  GI50: 2.29 µM
  TGI: 7.36 µM and 3.15 µM
MCF7 breast
  GI50: 0.432 µM
  TGI: 2.01 µM and 0.937 µM
SK-OV-3 ovarian
  GI50: 8 µM
  TGI: 22.2 µM and 26.3 µM

## COc1ccc(Cc2nc3cc(OC)c(OC)cc3c(=O)[nH]2)cc1
SF-539 CNS
  GI50: 7.97 µM
  TGI: 39.7 µM
RXF 393 renal
  GI50: 3.95 µM
  TGI: 24.3 µM
T-47D breast
  GI50: 21.5 µM
  TGI: > 100 µM
A498 renal
  GI50: 18.6 µM
  TGI: 66.9 µM
COLO 205 colon
  GI50: 2.33 µM
  TGI: 6.93 µM
UACC-62 melanoma
  GI50: 8.74 µM
  TGI: 34.5 µM
MOLT-4 leukemia
  GI50: 5.36 µM
  TGI: > 59.6 µM
OVCAR-4 ovarian
  GI50: 25.4 µM
  TGI: > 100 µM
MCF7 breast
  GI50: 5.32 µM
  TGI: > 47.5 µM
SK-OV-3 ovarian
  GI50: 88.5 µM
  TGI: > 100 µM
